Patent US10906876B2, “Tetrahydroisoquinolines as selective NADPH oxidase 2 inhibitors” (University of Pittsburgh—Of the Commonwealth System of …, priority 2013, dated 2021)

What was measured:
Nox1 = target: T1, Nox1 (Homo sapiens, UniProt Q9Y5S8); assay: Constitutive Nox1 activity in transiently transfected COS-Nox1/NOXO1/NOXA1 cells, L-012 assay; type: cell-based; conditions: for Nox1 inhibitory activity: Table 2; for IC50: constitutive activity, transiently transfected Cos-Nox1 cells, L-012, read-out: IC50 of ROS generation, Nox1 (L-012 assay)
T1 construct: Plasmids encoding full-length human cDNAs for Nox1 (pcDNA3.1-hNox1); expressed in transfected cells; host or cells: COS-22 (COS-7 stably expressing human p22phox), transient co-transfection
T1 sequence (Q9Y5S8 1-564): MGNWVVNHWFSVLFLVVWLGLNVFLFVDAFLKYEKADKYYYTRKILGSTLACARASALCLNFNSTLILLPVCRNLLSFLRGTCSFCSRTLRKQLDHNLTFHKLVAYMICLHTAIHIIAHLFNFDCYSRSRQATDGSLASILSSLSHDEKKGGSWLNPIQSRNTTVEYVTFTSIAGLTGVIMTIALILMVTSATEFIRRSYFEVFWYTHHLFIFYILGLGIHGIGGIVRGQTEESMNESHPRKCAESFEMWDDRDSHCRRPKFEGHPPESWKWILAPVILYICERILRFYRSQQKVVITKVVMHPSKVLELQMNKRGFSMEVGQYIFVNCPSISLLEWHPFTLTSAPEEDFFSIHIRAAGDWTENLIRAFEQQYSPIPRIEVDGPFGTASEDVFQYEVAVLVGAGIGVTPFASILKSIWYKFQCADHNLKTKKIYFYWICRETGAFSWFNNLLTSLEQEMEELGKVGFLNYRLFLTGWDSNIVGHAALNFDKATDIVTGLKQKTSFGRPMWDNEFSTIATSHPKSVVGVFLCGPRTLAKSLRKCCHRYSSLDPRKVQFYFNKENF
T1 sequence (P13498 2-195 partner limits assumed): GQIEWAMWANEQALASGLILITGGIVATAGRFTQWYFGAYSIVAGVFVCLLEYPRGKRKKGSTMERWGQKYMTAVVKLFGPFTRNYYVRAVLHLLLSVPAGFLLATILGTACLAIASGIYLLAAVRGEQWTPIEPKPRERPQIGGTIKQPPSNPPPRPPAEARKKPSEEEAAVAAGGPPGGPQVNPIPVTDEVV
Text: Plasmids encoding full-length human cDNAs for Nox1 (pcDNA3.1-hNox1), NOXO1 (pcDNA3.1-hNOXO1), NOXA1 (pCMVsport 6-hNOXA1), p47phox (pCMV-Tag4A-hp47) and Nox4 (pcDNA3-hNox4) were kindly provided by Dr. David Lambeth (Emory University, Ga.). Plasmids encoding Nox1, NOXO1, or NOXA1 were transformed and amplified into Escherichia coli strain TOP10 (Invitrogen, Carlsbad, Calif.). Plasmids were purified using a QIAfilter plasmid purification kit (QIAGEN Inc., Valencia, Calif.). For human Nox4 expression, the BglII/NotI restriction fragment from the pcDNA3-hNox4 was subcloned into the plasmid pcDNA3.1/Hygro(−) (Invitrogen, Carlsbad, Calif.) to generate pcDNA3.1/Hygro-hNox4. The fragment sequence, in-frame insertion and orientation were validated by DNA sequencing after PCR amplification. pcDNA3.1/Hygro-hNox4 was amplified into Escherichia coli strain TOP10 and purified with a QIAfilter plasmid purification kit.
Cell transfection was carried out using Lipofectamine LTX and Plus reagent (Invitrogen, Carlsbad, Calif., USA), according to the manufacturer's instructions. COS-22 cells were transiently co-transfected with pcDNA 3.1-hNox1, pCMVsport 6-hNOXA1 and pcDNA3.1-hNoxO1 (COS-Nox1/NOXO1/NOXA1 cells) or with pcDNA3.1/Hygro-hNox4 (COS-Nox4 cells). Cells were used 24 hr after transfection. Adherent cells were harvested by incubating with 0.05% trypsin/EDTA for 5 min at 37° C. Following addition of DMEM/10% FBS to neutralize the trypsin, the cells were pelleted by centrifugation at 1100×g for 5 min at 4° C. and used for the experiments.
COS-Nox2, COS-Nox1/NOXO1/NOXA1, HEK-Nox5 and COS-22 cells were re-plated in OPTIMEM into 384-well white micro-plates (Greiner-Bio One GmbH, Germany) at a density of 2.5×10^3 cells/well for COS-Nox2 and 5×10^4 cells/well for all others. The cells were incubated at 37° C. in PBS containing […] L-012 for 10 min. Reaction was initiated by addition of 5 μM PMA in the case of Nox2 or 1 μM PMA/0.1 μM Ionomycin in the case of Nox5. Since Nox1 was constitutively active, Nox1-derived O2^•− was assessed by comparison to non-transfected cells (Cos22). Luminescence was quantified over time using a Biotek Synergy 4 Hybrid Multi-Mode Microplate Reader. The specificity of L-012 for O2^•− was confirmed by the addition of SOD (150 U/mL).
All data are expressed as means±SEM. IC50 values were determined using the GraphPad Prism software (GraphPad Software, San Diego, Calif.) for non-linear regression three-parameters, with constrain values of 100 and 0 for top and bottom, respectively, and assumes a Hill slope of 1.

cells = assay: Cytotoxicity assay (CytoTox-Glo); type: cell-based; conditions: highest concentration tested (25 and 50 μM tested, FIG. 5)
Procedure: The cytotoxic effect of compounds was tested using CytoTox-Glo kit (Promega, Madison, Wis.). This assay uses a luminogenic peptide substrate, the AAF-Glo™ Substrate, to measure dead-cell protease activity, which is released from cells that have lost membrane integrity. Cells were plated in 384-well plate at 2.5×10^3 cells/well in OPTIMEM, incubated for 15 min with the compounds at various concentrations and then carried out dead cell measurements according to manufacturer protocol. […] signals before and after the addition of digitonin were used to calculate the % of dead cells in each independent well.
Another undesirable side effect would be the reduction of ROS production in the assays due to cell death rather than an inhibition of Nox2. To verify that this was not the case for these tetrahydroisoquinolines, the effect of various concentrations of the compounds on cell viability was determined using a commercially available CytoTox-Glo assay (Promega). This assay measures the concentration of proteases released from cells that have lost membrane integrity (i.e., dead cells). Data are expressed as % of live cells in each independent well (=100−% dead cells).

Row | SMILES | IC50 (Nox1) [µM] | Nox1 inhibitory activity (Nox1) | Effect on cell viability (cells)
1 | C=C(C)CC1NC2CC(C)(C)C1c1c(Br)cccc12 (racemic) [Compound 7, (±)-(1S,4R,9S)-5-Bromo-3,3-dimethyl-9-(2-methylallyl)-1,2,3,4-tetrahydro-1,4-(epimino-methano)-naphthalene] | 31 ± 0.7 | active | had any effect on cell viability
2 | C=C(C)CC1NC2CC(C)(C)C1c1ccccc12 (racemic) [Compound 8, (±)-(1S,4R,9S)-3,3-Dimethyl-9-(2-methylallyl)-1,2,3,4-tetrahydro-1,4-(epiminomethano)-naphthalene] | > 100 | inactive | –
3 | C=C(C)CC1C2c3ccccc3C(CC2(C)C)N1Cc1cccc(F)c1 (racemic) [Compound 11a, (±)-(1S,4R,9S)-10-(3-Fluorobenzyl)-3,3-dimethyl-9-(2-methylallyl)-1,2,3,4-tetrahydro-1,4-(epiminomethano)naphthalene] | > 100 | – | –
4 | C=C(C)CC1C2c3c(Br)cccc3C(CC2(C)C)N1Cc1ccnc2ccccc12 (racemic) [Compound 11b, (±)-(1S,4R,9S)-5-Bromo-3,3-dimethyl-9-(2-methylallyl)-10-(quinolin-4-ylmethyl)-1,2,3,4-tetra-hydro-1,4-(epiminomethano)naphthalene] | > 100 | – | –
5 | C=C(C)CC1C2c3c(Br)cccc3C(CC2(C)C)N1Cc1c[nH]c2ccccc12 (racemic) [Compound 11c, (±)-(1S,4R,9S)-10-((1H-Indol-3-yl)methyl)-5-bromo-3,3-dimethyl-9-(2-methylallyl)-1,2,3,4-tetrahydro-1,4-(epiminomethano)naphthalene] | > 100 | – | –
6 | C=C(C)CC1C2c3c(Br)cccc3C(CC2(C)C)N1Cc1ccc2c(c1)OCO2 (racemic) [Compound 11d, (±)-(1S,4R,9S)-10-(Benzo[d][1,3]dioxol-5-ylmethyl)-5-bromo-3,3-dimethyl-9-(2-methylallyl)-1,2,3,4-tetrahydro-1,4-(epiminomethano)naphthalene] | > 100 | – | –
7 | C=C(C)CC1C2c3c(Br)cccc3C(CC2(C)C)N1Cc1cc(C)on1 (racemic) [Compound 11e, (±)-3-(1S,4R,9S)-5-Bromo-3,3-dimethyl-9-(2-methylallyl)-1,2,3,4-tetrahydro-1,4-(epimino-methano) naphthalen-10-yl)methyl)-5-methylisoxazole] | > 100 | – | –
8 | C=C(C)CC1C2c3c(Br)cccc3C(CC2(C)C)N1Cc1cccc(F)c1 (racemic) [Compound 11f, (±)-(1S,4R,9S)-5-Bromo-10-(3-fluorobenzyl)-3,3-dimethyl-9-(2-methylallyl)-1,2,3,4-tetrahydro-1,4-(epiminomethano)naphthalene] | > 100 | – | –
9 | C=C(C)CC1C2c3c(Br)cccc3C(CC2(C)C)N1CCCCC (racemic) [Compound 11g, (±)-(1S,4R,9S)-5-Bromo-3,3-dimethyl-9-(2-methylallyl-10-pentyl-1,2,3,4-tetrahydro-1,4-(epiminomethano)naphthalene] | > 100 | virtually no effect | –
10 | C=C(C)CC1C2c3c(Br)cccc3C(CC2(C)C)N1Cc1cccs1 (racemic) [Compound 11h, (±)-(1S,4R,9S)-5-Bromo-3,3-dimethyl-9-(2-methylallyl)-10-(thiophen-2-ylmethyl)-1,2,3,4-tetrahydro-1,4-(epiminomethano)naphthalene] | > 100 | virtually no effect | –
11 | CC(C)CC1NC2CC(C)(C)C1c1c(Br)cccc12 (racemic) [Compound 13] | 32 ± 18 | retained inhibitory activity | had any effect on cell viability
12 | C=C(C)C[C@@H]1N[C@H]2CC(C)(C)[C@@H]1c1c(Br)ccc(Br)c12 [Compound 9] | 60 ± 36 | active | had any effect on cell viability

Continued, in another order:

Row | IC50 (Nox1) [µM] | SMILES | Nox1 inhibitory activity (Nox1) | Effect on cell viability (cells)
13 | > 100 | C=C(C)CC1NC2CC(C)(C)C1c1c(-c3ccc(Cl)c(Cl)c3)cccc12 (racemic) [Compound 12a, (±)-(1S,4R,9S)-5-(3,4-Dichlorophenyl)-3,3-dimethyl-9-(2-methylallyl)-1,2,3,4-tetrahydro-1,4-(epiminomethano)naphthalene] | – | –
14 | > 100 | C=C(C)CC1C2c3c(-c4ccc(Cl)c(Cl)c4)cccc3C(CC2(C)C)N1Cc1ccc2c(c1)OCO2 (racemic) [Compound 12b, (±)-(1S,4R,9S)-10-(Benzo[d][1,3]dioxol-5-ylmethyl)-5-(3,4-dichlorophenyl)-3,3-dimethyl-9-(2-methylallyl)-1,2,3,4-tetrahydro-1,4-(epiminomethano)-naphthalene] | – | –
15 | > 100 | C=C(C)CC1C2c3c(-c4ccc(Cl)c(Cl)c4)cccc3C(CC2(C)C)N1CCCCC (racemic) [Compound 12c] | – | –
16 | > 100 | C=C(C)CC1C2c3c(Br)cccc3C(CC2(C)C)N1S(C)(=O)=O (racemic) [Compound 14a, (±)-(1S,4R,9S)-5-Bromo-3,3-dimethyl-9-(2-methylallyl)-10-(methylsulfonyl)-1,2,3,4-tetrahydro-1,4-(epiminomethano)naphthalene] | – | –
17 | > 100 | C=C(C)CC1C2c3c(Br)cccc3C(CC2(C)C)N1S(=O)(=O)c1ccc(F)cc1 (racemic) [Compound 14b, (±)-(1S,4R,9S)-5-Bromo-10-((4-fluorophenyl)sulfonyl)-3,3-dimethyl-9-(2-methylallyl)-1,2,3,4-tetrahydro-1,4-(epiminomethano)naphthalene] | – | –
